Legend:
Kasumi-1 cells = experiment: Kasumi-1 cellular viability assay (ATP-Lite, 72 h); format: cell-based; details: Homo sapiens, ATP-Lite luminescence, % viability relative to DMSO
How it was run: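 Viability was read by ATP-Lite One Step luminescence after 72 h compound treatment at 37 °C/5% CO2, normalised to DMSO control, with IC50 fitted from concentration-response. Cells were Kasumi-1 (AML FAB M2) at 15000 per well in RPMI-1640/10% FBS, 0.1% DMSO final.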

Caov-3 cells = experiment: Caov-3 cellular viability assay (ATP-Lite, 72 h); format: cell-based; details: Homo sapiens, ATP-Lite luminescence, % viability relative to DMSO
How it was run: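 IC50 values come from concentration-response fits of luminescent ATP content (ATP-Lite One Step), normalised as % viability versus DMSO. Compound exposure was 72 h at 37 °C in RPMI-1640/10% FBS with 0.1% final DMSO. Wells held 10000 cells each.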

[1] = biological target: T1, recombinant METTL3/METTL14 complex (Homo sapiens, UniProt Q86U44); experiment: METTL3/14 Scintillation Proximity Assay (SPA), RNA methyltransferase activity; format: biochemical; details: 5.31 nM METTL3/14 complex, 250 nM RNA substrate, 1 μM 3H-SAM, 90 min; for compounds marked * best of the two separated forms
T1 construct: purchased Active Motif 311970; host or cells: Sf9 cells
T1 sequence (Q86U44 whole entry): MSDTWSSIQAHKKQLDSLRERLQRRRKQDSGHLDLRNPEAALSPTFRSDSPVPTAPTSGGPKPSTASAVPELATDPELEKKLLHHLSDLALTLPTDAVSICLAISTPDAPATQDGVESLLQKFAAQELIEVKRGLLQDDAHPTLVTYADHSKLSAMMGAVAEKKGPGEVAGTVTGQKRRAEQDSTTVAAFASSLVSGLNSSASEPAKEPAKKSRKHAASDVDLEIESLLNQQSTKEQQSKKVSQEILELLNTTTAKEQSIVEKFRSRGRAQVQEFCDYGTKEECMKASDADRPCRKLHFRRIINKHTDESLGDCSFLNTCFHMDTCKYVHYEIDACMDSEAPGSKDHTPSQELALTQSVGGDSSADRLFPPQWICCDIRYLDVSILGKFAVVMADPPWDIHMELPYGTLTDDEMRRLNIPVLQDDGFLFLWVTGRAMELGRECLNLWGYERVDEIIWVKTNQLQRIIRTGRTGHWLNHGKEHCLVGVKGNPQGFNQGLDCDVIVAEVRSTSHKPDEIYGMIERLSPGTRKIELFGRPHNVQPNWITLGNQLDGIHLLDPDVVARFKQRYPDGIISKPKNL
T1 sequence (Q9HCE5 whole entry partner): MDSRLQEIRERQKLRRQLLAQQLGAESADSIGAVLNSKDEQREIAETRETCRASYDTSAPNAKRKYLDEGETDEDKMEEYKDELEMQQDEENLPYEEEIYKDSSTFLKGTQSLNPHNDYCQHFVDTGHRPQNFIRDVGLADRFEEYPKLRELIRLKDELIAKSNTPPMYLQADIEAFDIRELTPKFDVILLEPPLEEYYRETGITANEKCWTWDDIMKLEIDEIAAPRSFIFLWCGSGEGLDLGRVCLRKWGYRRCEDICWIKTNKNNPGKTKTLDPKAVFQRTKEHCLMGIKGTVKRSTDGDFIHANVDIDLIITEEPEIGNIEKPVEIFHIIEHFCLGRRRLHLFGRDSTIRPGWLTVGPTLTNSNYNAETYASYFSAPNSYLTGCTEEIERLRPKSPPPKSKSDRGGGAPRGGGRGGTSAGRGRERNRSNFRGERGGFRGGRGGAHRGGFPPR

SMILES | IC50 (Kasumi-1 cells) | IC50 (Caov-3 cells) | IC50 [1]
CC(n1cc(-c2cncc(C3CC3)c2)nn1)n1ccc(N2CCC[C@@H](NCC3CC3)C2)cc1=O (stereo partly drawn) [Compound 320, 4-((R)-3-((cyclopropylmethyl)amino)piperidin-1-yl)-1-(1-(4-(5-cyclopropylpyridin-3-yl)-1H-1,2,3-triazol-1-yl)ethyl)pyridin-2(1H)-one] | ≤ 500 nM | ≤ 500 nM | ≤ 50 nM
CCOc1cncc(-c2cn(C(C)c3ccc(N4CCC[C@@H](NCC5CCC5)C4)nn3)nn2)c1 (single isomer, unassigned) [Compound 187] | 500 to 5000 nM | ≤ 500 nM | ≤ 50 nM
O=C(Nc1cc(=O)n2ccccc2n1)C1(c2ccc(N3CCC[C@@H](NCC4CC4)C3)nc2)COC1 [Compound 321, (R)-3-(6-(3-((cyclopropylmethyl)amino)piperidin-1-yl)pyridin-3-yl)-N-(4-oxo-4H-pyrido[1,2-a]pyrimidin-2-yl)oxetane-3-carboxamide] | 500 to 5000 nM | 500 to 5000 nM | ≤ 50 nM
COc1cncc(-c2cn(C(C)n3ncc(N4CCC[C@@H](NCC5CCC5)C4)cc3=O)nn2)c1 (stereo partly drawn) [Compound 067, 5-((R)-3-((cyclobutylmethyl)amino)piperidin-1-yl)-2-(1-(4-(5-methoxypyridin-3-yl)-1H-1,2,3-triazol-1-yl)ethyl)pyridazin-3(2H)-one] | 500 to 5000 nM | 500 to 5000 nM | ≤ 50 nM
O=C(NCc1ccc(N2CCC[C@@H](NCC3CCC3)C2)cn1)c1cc(=O)n2ccccc2n1 [Compound 060, (R)-N-((5-(3-((cyclobutylmethyl)amino)piperidin-1-yl)pyridin-2-yl)methyl)-4-oxo-4H-pyrido[1,2-a]pyrimidine-2-carboxamide] | > 5000 nM | > 5000 nM | ≤ 50 nM
COc1cc(-c2cn(C(C)c3ccc(N4CCC[C@@H](NCC5CCC5)C4)nn3)nn2)c2cn[nH]c2c1 (single isomer, unassigned) [Compound 037] | ≤ 500 nM | ≤ 500 nM | ≤ 50 nM
COc1cc(-c2cn(C(C)n3ccc(N4CCC[C@@H](NCC5CCC5)C4)cc3=O)nn2)c2cn[nH]c2c1 (mixture of isomers) [Compound 050, 4-((R)-3-((cyclobutylmethyl)amino)piperidin-1-yl)-1-(1-(4-(6-methoxy-1H-indazol-4-yl)-1H-1,2,3-triazol-1-yl)ethyl)pyridin-2(1H)-one] | ≤ 500 nM | ≤ 500 nM | ≤ 50 nM
c1cc(N2CCC[C@@H](NCC3CCC3)C2)ccc1Cn1cc(-c2cncc(N3CCCC3)n2)nn1 [Compound 287, (R)-N-(cyclobutylmethyl)-1-(4-((4-(6-(pyrrolidin-1-yl)pyrazin-2-yl)-1H-1,2,3-triazol-1-yl)methyl)phenyl)piperidin-3-amine] | ≤ 500 nM | ≤ 500 nM | ≤ 50 nM
COc1cncc(-c2cn(C3(c4ccc(N5CCC[C@@H](NCC6CCC6)C5)cn4)COC3)cn2)c1 [Compound 267, (R)-N-(cyclobutylmethyl)-1-(6-(3-(4-(5-methoxypyridin-3-yl)-1H-imidazol-1-yl)oxetan-3-yl)pyridin-3-yl)piperidin-3-amine] | 500 to 5000 nM | 500 to 5000 nM | ≤ 50 nM
CC(c1nnc(-c2cncc(N(C)C)c2)s1)n1ccc(N2CCC[C@@H](NCC3CCC3)C2)cc1=O (stereo partly drawn) [Compound 171, 4-((R)-3-((cyclobutylmethyl)amino)piperidin-1-yl)-1-(1-(5-(5-(dimethylamino)pyridin-3-yl)-1,3,4-thiadiazol-2-yl)ethyl)pyridin-2(1H)-one] | ≤ 500 nM | ≤ 500 nM | ≤ 50 nM
CN(C)c1cncc(-c2cn(Cn3ccc(N4CCC[C@@H](NCC5CC5)C4)cc3=O)nn2)c1 [Compound 174, (R)-4-(3-((cyclopropylmethyl)amino)piperidin-1-yl)-1-((4-(5-(dimethylamino)pyridin-3-yl)-1H-1,2,3-triazol-1-yl)methyl)pyridin-2(1H)-one] | ≤ 500 nM | ≤ 500 nM | ≤ 50 nM
Clc1cc(-c2cn(Cc3ccc(N4CCC[C@@H](NCC5CCC5)C4)nn3)nn2)c2cn[nH]c2c1 [Compound 057, (R)-1-(6-((4-(6-chloro-1H-indazol-4-yl)-1H-1,2,3-triazol-1-yl)methyl)pyridazin-3-yl)-N-(cyclobutylmethyl)piperidin-3-amine] | 500 to 5000 nM | 500 to 5000 nM | ≤ 50 nM
CCN(C)c1cncc(-c2cn(C(C)n3ccc(N4CCC[C@@H](NCC5CCC5)C4)cc3=O)nn2)c1 (single isomer, unassigned) [Compound 151] | ≤ 500 nM | ≤ 500 nM | ≤ 50 nM
FC(F)(F)C1(CN[C@@H]2CCCN(c3ccc(C4(n5cc(-c6cncc(C7CC7)c6)nn5)COC4)nc3)C2)CCC1 [Compound 339, (R)-1-(6-(3-(4-(5-cyclopropylpyridin-3-yl)-1H-1,2,3-triazol-1-yl)oxetan-3-yl)pyridin-3-yl)-N-((1-(trifluoromethyl)cyclobutyl)methyl)piperidin-3-amine] | 500 to 5000 nM | ≤ 500 nM | ≤ 50 nM
CC(c1ccc(N2CCC[C@@H](NCC3CC3)C2)cn1)n1cc(-c2cncc(N3CCCC3)n2)nn1 (single isomer, unassigned) [Compound 259] | ≤ 500 nM | ≤ 500 nM | ≤ 50 nM
O=C(Nc1cc(=O)n2ccsc2n1)C1(c2ccc(N3CCC[C@@H](NCC4CCC4)C3)cn2)COC1 [Compound 311, (R)-3-(5-(3-((cyclobutylmethyl)amino)piperidin-1-yl)pyridin-2-yl)-N-(5-oxo-5H-thiazolo[3,2-a]pyrimidin-7-yl)oxetane-3-carboxamide] | ≤ 500 nM | ≤ 500 nM | ≤ 50 nM
CC(n1cc(-c2cncc(NCCO)c2)nn1)n1ccc(N2CCC[C@@H](NCC3CC3)C2)cc1=O (stereo partly drawn) [Compound 205] | > 5000 nM | 500 to 5000 nM | ≤ 50 nM
COc1cc(-c2cn(Cc3ccc(N4CCCC(N5CCC(C)CC5)C4)nn3)nn2)c2cn[nH]c2c1 (stereo not drawn) [Compound 007, 6-methoxy-4-(1-((6-(4-methyl-[1,3′-bipiperidin]-1′-yl)pyridazin-3-yl)methyl)-1H-1,2,3-triazol-4-yl)-1H-indazole] | 500 to 5000 nM | 500 to 5000 nM | ≤ 50 nM
CC(c1cnn(-c2cncc(N3CCCC3)n2)c1)c1ccc(N2CCC[C@@H](NCC3CC3)C2)cn1 (single isomer, unassigned) [Compound 354] | ≤ 500 nM | ≤ 500 nM | ≤ 50 nM
CN(C)c1cncc(-c2cn(C3(c4ccc(N5CCC[C@@H](NCC6CC6)C5)cn4)COC3)nn2)n1 [Compound 192, (R)-6-(1-(3-(5-(3-((cyclopropylmethyl)amino)piperidin-1-yl)pyridin-2-yl)oxetan-3-yl)-1H-1,2,3-triazol-4-yl)-N,N-dimethylpyrazin-2-amine] | ≤ 500 nM | ≤ 500 nM | ≤ 50 nM
O=C(Nc1cc(=O)n2ccccc2n1)C1(c2ccc(N3CCC[C@@H](NCC45CC(F)(C4)C5)C3)cn2)COC1 [Compound 263, (R)-3-(5-(3-(((3-fluorobicyclo[1.1.1]pentan-1-yl)methyl)amino)piperidin-1-yl)pyridin-2-yl)-N-(4-oxo-4H-pyrido[1,2-a]pyrimidin-2-yl)oxetane-3-carboxamide] | ≤ 500 nM | ≤ 500 nM | ≤ 50 nM
c1cc(C2(n3cc(-c4cncc(N5CC6CC6C5)n4)nn3)COC2)ncc1N1CCC[C@@H](NCC2CC2)C1 (stereo partly drawn) [Compound 216, (3R)-1-(6-(3-(4-(6-(3-azabicyclo[3.1.0]hexan-3-yl)pyrazin-2-yl)-1H-1.2.3-triazol-1-yl)oxetan-3-yl)pyridin-3-yl)-N-(cyclopropylmethyl)piperidin-3-amine] | ≤ 500 nM | ≤ 500 nM | ≤ 50 nM

Reference: patent US20250002475A1 (EPICS THERAPEUTICS, priority 2023, published 2025)
